Laboratory results: ChEMBL document CHEMBL3400044, “Minimization of drug-drug interaction risk and candidate selection in a natural product-based class of gamma-secretase modulators” (Bioorg Med Chem Lett, 2015)

Assay: physchem

Row | pKa | Compound
1 | 10.7 | CCO[C@@H]([C@H]1C[C@@H](C)[C@H]2[C@H](O1)[C@H](O)[C@@]1(C)[C@@H]3CC[C@H]4C(C)(C)[C@@H](O[C@H]5CN(C6CNC6)CCO5)CC[C@@]45C[C@@]35CC[C@]21C)C(C)(C)O
2 | 5.2 | CCO[C@@H]([C@H]1C[C@@H](C)[C@H]2[C@H](O1)[C@H](O)[C@@]1(C)[C@@H]3CC[C@H]4C(C)(C)[C@@H](O[C@H]5CN(C6(C)COC6)CCO5)CC[C@@]45C[C@@]35CC[C@]21C)C(C)(C)O
3 | 7.3 | CCO[C@@H]([C@H]1C[C@@H](C)[C@H]2[C@H](O1)[C@H](O)[C@@]1(C)[C@@H]3CC[C@H]4C(C)(C)[C@@H](O[C@H]5CN(CC)CCO5)CC[C@@]45C[C@@]35CC[C@]21C)C(C)(C)O
4 | 9.4 | CCO[C@@H]([C@H]1C[C@@H](C)[C@H]2[C@H](O1)[C@H](O)[C@@]1(C)[C@@H]3CC[C@H]4C(C)(C)[C@@H](O[C@H]5CN(CCN6CCC6)CCO5)CC[C@@]45C[C@@]35CC[C@]21C)C(C)(C)O

More lines, now with the values behind:

Row | Compound | pKa
5 | CCO[C@@H]([C@H]1C[C@@H](C)[C@H]2[C@H](O1)[C@H](O)[C@@]1(C)[C@@H]3CC[C@H]4C(C)(C)[C@@H](O[C@H]5CN(C)CCO5)CC[C@@]45C[C@@]35CC[C@]21C)C(C)(C)O | 7.2
6 | CCO[C@@H]([C@H]1C[C@@H](C)[C@H]2[C@H](O1)[C@H](O)[C@@]1(C)[C@@H]3CC[C@H]4C(C)(C)[C@@H](O[C@H]5CN(CC(=O)N6CCC6)CCO5)CC[C@@]45C[C@@]35CC[C@]21C)C(C)(C)O | 5.2
7 | CCO[C@@H]([C@H]1C[C@@H](C)[C@H]2[C@H](O1)[C@H](O)[C@@]1(C)[C@@H]3CC[C@H]4C(C)(C)[C@@H](O[C@H]5CNCCO5)CC[C@@]45C[C@@]35CC[C@]21C)C(C)(C)O | 7.8
8 | CCO[C@@H]([C@H]1C[C@@H](C)[C@H]2[C@H](O1)[C@H](O)[C@@]1(C)[C@@H]3CC[C@H]4C(C)(C)[C@@H](O[C@H]5CN(C6COC6)CCO5)CC[C@@]45C[C@@]35CC[C@]21C)C(C)(C)O | 5.1
